Reference: the NIST ThermoML archive (doi:10.1021/je700755t)

Assay: xn = mol fraction of the nth substance listed
Conditions: 101 kPa, Liquid; for viscosity: Capillary tube (Ostwald / Ubbelohde) method

O=CO [formic acid] + CN(C)C=O
Conditions	mass density [kg/m3]	viscosity [mPa·s]
303.15 K, x1 = 0.1001	953.65	0.831
303.15 K, x1 = 0.2	969.23	0.93
303.15 K, x1 = 0.3001	986.66	1.048
303.15 K, x1 = 0.4	1006.16	1.186
303.15 K, x1 = 0.4999	1027.99	1.324
303.15 K, x1 = 0.6003	1053.17	1.466
303.15 K, x1 = 0.7005	1081.71	1.555
303.15 K, x1 = 0.7998	1115.25	1.562
303.15 K, x1 = 0.9002	1157.02	1.533
303.15 K, x1 = 1	1205.07	1.437
313.15 K, x1 = 0.1001	943.97	0.738
313.15 K, x1 = 0.2	959.57	0.815
313.15 K, x1 = 0.3001	977.07	0.92
313.15 K, x1 = 0.4	996.43	1.028
313.15 K, x1 = 0.4999	1018.12	1.143
313.15 K, x1 = 0.6003	1043.03	1.253
313.15 K, x1 = 0.7005	1071.28	1.313
313.15 K, x1 = 0.7998	1104.39	1.342
313.15 K, x1 = 0.9002	1145.58	1.33
313.15 K, x1 = 1	1192.81	1.205
323.15 K, x1 = 0.1001	934.86	0.662
323.15 K, x1 = 0.2	950.34	0.725
323.15 K, x1 = 0.3001	967.77	0.808
323.15 K, x1 = 0.4	986.86	0.898
323.15 K, x1 = 0.4999	1008.39	0.992
323.15 K, x1 = 0.6003	1033.04	1.076
323.15 K, x1 = 0.7005	1060.99	1.121
323.15 K, x1 = 0.7998	1093.73	1.14
323.15 K, x1 = 0.9002	1134.05	1.117
323.15 K, x1 = 1	1180.63	1.022
333.15 K, x1 = 0.1001	924.58	0.59
333.15 K, x1 = 0.2	939.91	0.649
333.15 K, x1 = 0.3001	957.33	0.72
333.15 K, x1 = 0.4	976.15	0.793
333.15 K, x1 = 0.4999	997.5	0.867
333.15 K, x1 = 0.6003	1021.94	0.933
333.15 K, x1 = 0.7005	1049.51	0.971
333.15 K, x1 = 0.7998	1081.77	0.982
333.15 K, x1 = 0.9002	1121.74	0.959
333.15 K, x1 = 1	1167.44	0.879
343.15 K, x1 = 0.1001	915.36	0.538
343.15 K, x1 = 0.2	930.7	0.587
343.15 K, x1 = 0.3001	947.93	0.643
343.15 K, x1 = 0.4	966.58	0.708
343.15 K, x1 = 0.4999	987.75	0.768
343.15 K, x1 = 0.6003	1011.92	0.823
343.15 K, x1 = 0.7005	1039.13	0.85
343.15 K, x1 = 0.7998	1070.96	0.857
343.15 K, x1 = 0.9002	1110.03	0.835
343.15 K, x1 = 1	1154.99	0.766
353.15 K, x1 = 0.1001	905.11	0.492
353.15 K, x1 = 0.2	920.26	0.534
353.15 K, x1 = 0.3001	937.3	0.582
353.15 K, x1 = 0.4	955.9	0.635
353.15 K, x1 = 0.4999	976.91	0.693
353.15 K, x1 = 0.6003	1000.84	0.732
353.15 K, x1 = 0.7005	1027.78	0.754
353.15 K, x1 = 0.7998	1059.18	0.756
353.15 K, x1 = 0.9002	1097.86	0.736
353.15 K, x1 = 1	1142.08	0.677
